Data: patent US8372890B2, “Functional food containing sodium tricaffeoylaldarate” (Zenyaku Kogyo Kabushikikaisha, priority 2006, dated 2013)

Legend:
[1] = test system: Lipid Peroxidation (brain homogenate auto-oxidation); assay: Brain homogenate auto-oxidation test (lipid peroxide production inhibition, thiobarbituric acid method); type: biochemical; conditions: for IC50: value in parentheses, read-out: Inhibitory Activities on Lipid Peroxidation IC50
From the text: [formula] Moreover, f: Purity of reference standard (%)/100 6) Brain Homogenate Auto-oxidation Test
Determined via a thiobarbituric acid method that was based on the method of Ohkawa, et al. (Reference Document 2)

[2] = 1,1-Diphenyl-2-picrylhydrazyl (DPPH) radical scavenging test; conditions: for EC50: value in parentheses, read-out: DPPH Radical Scavenging Activities EC50
From the text: 7) 1,1-Diphenyl-2-picrylhydrazyl (DPPH) Radical Scavenging Test
Determined based on the method of Blois, et al. (Reference Document 3)

[3] = biological target: α-amylase; assay: Glycosidase inhibitory activity test, amylase; type: biochemical
From the text: (§1) 8) Glycosidase Inhibitory Activity Test
(§2) Determined via a method whereby α-amylase, maltase, and sucrase inhibitory activities were all disclosed in the abovementioned report (Non-Patent Document 1).

[4] = test system: blood glucose level after maltose-loading; assay: Hyperglycemic inhibitory action after maltose-loading in rat; type: in vivo, SD (IGS) rat; conditions: for ΔAUC of blood glucose / ΔCmax of blood glucose: maltose 1 g/kg gavage
From the text: • 1) Test Substance: With regard to TCAA, Yacon hot water extract was passed through an HP-20 column chromatograph, then eluted with water, and finally eluted with 50% methanol to obtain a polyphenol fraction. This fraction was separated by being passed through a Sephadex LH-20, and eluted with 40% methanol/water, so that the total amount of TCAA contained therein was recovered during confirmation of TCAA with HPLC. Then, the rough TCAA fraction was passed through a HW-40 column chromatograph, separated with 40% methanol/water during confirmation of TCAA with HPLC in a similar manner, and components other than TCAA were removed. […] Moreover, the maltose employed was purchased from Wako Pure Chemical Industries, Ltd. • 2) Animals: One group of five SD (IGS) 7 week old male rats was employed. 2. Experimental Method • 1) Configuration of the Treatment Group • (1) Control Group (Maltose Only) • (2) Maltose+TCAA (600 mg/kg×2) • (3) Maltose+TCAA (300 mg/kg×2) • (4) Maltose+TCAA (150 mg/kg×2) • 2) Preparation of Test Substance
Maltose was weighed to an amount of 1.5 g, dissolved in 15 ml of distilled water, and administered by gavage at a dosage of 1 g/10 ml/kg. Then TCAA was administered in two doses, a first dosage in which it was administered in a maltose solution, and then a second dosage in which it was dissolved in distilled water, with both dosages being at ratios of 150 mg/10 ml, 300 mg/10 ml, and 600 mg/10 ml, respectively, and administration thereof by gavage at a dosage of 10 ml/kg.
After blood samples were collected from rats that fasted for 17 hours prior to administration of the test substance (0 time), the test substance was administered. Fifteen minutes later the second dosage was administered, with blood samples being taken soon thereafter (specifically, 15 minutes later), 30 minutes thereafter, 45 minutes thereafter, 60 minutes thereafter, 90 minutes thereafter, and 120 minutes thereafter, respectively, and then blood glucose levels being measured with a Glucocard (Aventis Pharma, Limited).
When measuring blood glucose levels at the times that each of the samples were collected, the change in blood glucose (A) was calculated by subtracting the blood glucose level prior to the administration (0 time) from the blood glucose levels after the administration of the test substance, and determining the maximum serum concentration (ΔCMAX) and area under the blood glucose curve (ΔAUC).
The blood glucose values obtained by the present experiment were averaged, the standard error of the mean was calculated, and a two-group comparison was made with the control group. The statistical test method was via the Bartlett method, with the variance of the measured values being statistically verified within a 95% confidence limit, and the Student's t-test only being conducted in cases of equal variance, to determine that p<0.05 was a statistically significant change.

[5] = biological target: sucrase (Homo sapiens, UniProt P14410); assay: Glycosidase inhibitory activity test, sucrase; type: biochemical
From the text: as §1, §2

[6] = biological target: maltase; assay: Glycosidase inhibitory activity test, maltase; type: biochemical
From the text: as §1, §2

[7] = comparative molar concentrations
[8] = TCAA 150 mg/kg × 2, mean ± SE, n = 5
[9] = TCAA 300 mg/kg × 2, mean ± SE, n = 5

Sequence of sucrase (P14410 whole entry, species assumed): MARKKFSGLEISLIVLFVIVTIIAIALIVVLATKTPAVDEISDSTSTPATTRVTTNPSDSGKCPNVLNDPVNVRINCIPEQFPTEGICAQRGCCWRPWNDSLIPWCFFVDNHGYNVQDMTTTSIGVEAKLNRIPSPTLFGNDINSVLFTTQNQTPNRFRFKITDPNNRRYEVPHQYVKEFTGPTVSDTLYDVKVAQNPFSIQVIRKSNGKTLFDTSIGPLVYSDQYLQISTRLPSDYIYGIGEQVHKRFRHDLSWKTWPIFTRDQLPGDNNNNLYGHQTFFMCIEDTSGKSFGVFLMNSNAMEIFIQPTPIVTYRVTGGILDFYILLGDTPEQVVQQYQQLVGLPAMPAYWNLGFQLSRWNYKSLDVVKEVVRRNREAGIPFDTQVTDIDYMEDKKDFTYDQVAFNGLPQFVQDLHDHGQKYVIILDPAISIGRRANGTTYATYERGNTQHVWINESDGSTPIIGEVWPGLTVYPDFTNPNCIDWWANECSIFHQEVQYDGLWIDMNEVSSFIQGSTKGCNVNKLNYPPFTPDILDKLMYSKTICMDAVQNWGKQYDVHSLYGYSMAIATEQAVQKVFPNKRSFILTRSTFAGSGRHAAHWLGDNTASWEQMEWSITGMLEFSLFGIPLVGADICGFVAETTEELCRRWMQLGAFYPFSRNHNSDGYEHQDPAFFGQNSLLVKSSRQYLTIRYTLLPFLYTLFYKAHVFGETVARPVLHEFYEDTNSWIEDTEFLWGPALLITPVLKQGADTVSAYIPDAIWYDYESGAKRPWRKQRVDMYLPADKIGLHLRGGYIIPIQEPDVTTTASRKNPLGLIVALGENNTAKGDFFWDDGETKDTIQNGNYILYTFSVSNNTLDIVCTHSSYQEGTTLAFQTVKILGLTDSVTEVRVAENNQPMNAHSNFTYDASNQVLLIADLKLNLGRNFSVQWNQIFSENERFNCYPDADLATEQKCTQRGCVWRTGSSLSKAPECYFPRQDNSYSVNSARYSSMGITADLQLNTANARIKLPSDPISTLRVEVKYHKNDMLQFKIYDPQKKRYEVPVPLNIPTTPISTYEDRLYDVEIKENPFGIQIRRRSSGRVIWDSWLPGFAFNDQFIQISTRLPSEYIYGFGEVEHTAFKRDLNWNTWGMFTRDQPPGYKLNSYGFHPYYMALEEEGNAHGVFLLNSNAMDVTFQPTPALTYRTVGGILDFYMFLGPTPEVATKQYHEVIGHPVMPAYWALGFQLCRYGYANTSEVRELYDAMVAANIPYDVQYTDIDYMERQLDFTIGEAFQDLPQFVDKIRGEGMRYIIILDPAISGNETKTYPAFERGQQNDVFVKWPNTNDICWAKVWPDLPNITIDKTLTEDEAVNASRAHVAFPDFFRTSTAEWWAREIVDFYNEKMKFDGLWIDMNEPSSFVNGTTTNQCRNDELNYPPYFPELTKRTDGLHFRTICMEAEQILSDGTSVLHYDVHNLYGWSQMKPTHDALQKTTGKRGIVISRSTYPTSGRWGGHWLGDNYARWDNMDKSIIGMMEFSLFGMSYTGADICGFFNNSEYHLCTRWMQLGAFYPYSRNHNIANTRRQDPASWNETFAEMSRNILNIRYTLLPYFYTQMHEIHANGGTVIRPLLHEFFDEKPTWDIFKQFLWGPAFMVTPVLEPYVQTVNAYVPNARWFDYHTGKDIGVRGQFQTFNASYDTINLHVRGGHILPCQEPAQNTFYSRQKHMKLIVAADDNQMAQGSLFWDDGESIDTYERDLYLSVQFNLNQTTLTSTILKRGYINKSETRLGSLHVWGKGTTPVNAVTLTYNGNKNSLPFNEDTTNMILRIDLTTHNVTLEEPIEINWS

| Compound | Inhibitory Activities on Lipid Peroxidation IC50 [1] | IC50 [1] | DPPH Radical Scavenging Activities EC50 [2] | EC50 [2] | also measured |
| --- | --- | --- | --- | --- | --- |
| 2,3,5-tricaffeoylaltraric acid, or 2,4,5-tricaffeoylaltraric acid [TCAA] | 0.49 µg/mL | 0.7 µM | 0.69 µg/mL | 0.99 µM | lipid peroxide production inhibitory activity, times greater than that of (±)-catechin [1, 7]: 68 times; lipid peroxide production inhibitory activity, times greater than that of ellagic acid [1, 7]: 2.5 times; amylase inhibitory activity IC50 [3]: 420 µg/mL; blood glucose 90 minute values compared to control group ([4]; 600 mg/kg TCAA group): obvious increase; increase in blood glucose via maltose-loading at 15 minutes ([4]; each TCAA dosage group (150, 300, 600 mg/kg × 2) vs control, p<0.01): significantly inhibited; ΔAUC of blood glucose [4, 8]: 5834 ± 484 mg·min/dL; ΔCmax of blood glucose [4, 8]: 86 ± 9 mg/dL; ΔAUC of blood glucose [4, 9]: 5456 ± 249 mg·min/dL; ΔCmax of blood glucose [4, 9]: 84 ± 5 mg/dL; ΔAUC of blood glucose ([4]; TCAA 600 mg/kg × 2, mean ± SE, n = 5): 5495 ± 300 mg·min/dL; ΔCmax of blood glucose ([4]; TCAA 600 mg/kg × 2, mean ± SE, n = 5, p < 0.05 vs control): 73 ± 3 mg/dL; sucrase inhibitory activity IC50 [5]: > 1000 µg/mL; maltase inhibitory activity IC50 ([6]; TCAA isolated in Example 1): 49 µg/mL; maltase inhibitory activity IC50 ([6]; TCAA test substance of Example 4, purity 91%): 61 µg/mL; maltase inhibitory activity compared to an acarbose control ([6]; fraction of acarbose activity): 1/19 |
| O=C(/C=C/c1ccc(O)c(O)c1)O[C@@H]1[C@H](O)C[C@@](O)(C(=O)O)C[C@H]1OC(=O)/C=C/c1ccc(O)c(O)c1 [3,4-DCQA, 3,4-dicaffeoylquinic acid] | 1.48 µg/mL | 2.87 µM | 0.91 µg/mL | 1.76 µM |  |
| O=C(/C=C/c1ccc(O)c(O)c1)O[C@@H]1C[C@](O)(C(=O)O)C[C@@H](OC(=O)/C=C/c2ccc(O)c(O)c2)[C@H]1O [3,5-DCQA] | 2.18 µg/mL | 4.23 µM | 0.87 µg/mL | 1.69 µM |  |
| O=C(/C=C/c1ccc(O)c(O)c1)O[C@H]1[C@H](O)C[C@](O)(C(=O)O)C[C@H]1OC(=O)/C=C/c1ccc(O)c(O)c1 [4,5-DCQA] | 3.38 µg/mL | 6.55 µM | 0.89 µg/mL | 1.72 µM |  |
| O=C(O)/C=C/c1ccc(O)c(O)c1 [caffeic acid] | 9.97 µg/mL | 55.3 µM | 4.39 µg/mL | 24.3 µM |  |
| O=C(/C=C/c1ccc(O)c(O)c1)O[C@@H]1C[C@](O)(C(=O)O)C[C@@H](O)[C@H]1O [chlorogenic acid] | 13.21 µg/mL | 37.3 µM |  |  |  |
| O=c1oc2c(O)c(O)cc3c(=O)oc4c(O)c(O)cc1c4c23 [ellagic acid] | 0.56 µg/mL | 1.85 µM | 0.51 µg/mL | 1.69 µM |  |
| Cc1c(C)c2c(c(C)c1O)CC[C@@](C)(CCC[C@H](C)CCC[C@H](C)CCCC(C)C)O2 [α-tocopherol] | 71.24 µg/mL | 166 µM | 5.65 µg/mL | 13.1 µM |  |
| (±)-catechin | 13.69 µg/mL | 47.2 µM | 1.56 µg/mL | 5.37 µM |  |
